Measurements published in PMC13588620, “Linear antibody epitope prediction using AlphaFold2” (eLife, 2026).

System: mBG17 binding to SARS-CoV-2 nucleocapsid protein
Assay: Peptide competition ELISA with overlapping nucleocapsid peptides
Set-up: species or system mouse
Settings: 40 μg (approximately 30 nMol) peptide incubated with 40 μl mBG17 for 1 h at room temperature, absorbance at 450 nm, n=3, percentage of binding from no-peptide control

Sequence | competition of mBG17 binding to the SARS-CoV-2 nucleocapsid protein in the ELISA
QLQQSMSSAD [a.a. 406–415, synthetic 10 a.a. peptide of SARS-CoV-2 nucleocapsid protein] | neither was able to compete
PAADLDDFSK [a.a. 296–405, synthetic 10 a.a. peptide of SARS-CoV-2 nucleocapsid protein overlapping a.a; 401–410 at the N-terminus] | neither was able to compete
DDFSKQLQQS [a.a. 401–410] | almost complete competition
